Experimental data taken from US9708314B2, “Heterocyclic amide compound” (NISSAN CHEMICAL INDUSTRIES, LTD., priority 2013, dated 2017).

Tests used:
Format in all cases: in vivo
[1] = test system: transplanted Oryza sativa; assay: Test Example 1: effect on crop, application before weed generation in submerged conditions; conditions: Application herbicide amount 320 g/ha; Seventeenth Table
Procedure, shortened: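 Pre-emergence water-surface application under 4 cm flooding, same day as sowing, with rice transplanted at 2.5 leaf stage. Dose given as g/ha. Plants grown at 25° C. to 30° C. and rated three weeks later on a 0 (≤5%) to 5 (≥90%) herbicidal-ratio scale.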

Brassica campestris L. = assay: Test Example 4: effect on crop by application to foliage (diluvial soil, plastic box); conditions: Application herbicide amount 320 g/ha; foliage application
Procedure, shortened: (§1)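 Seeds sown in sterilized diluvial soil, covered ~1.5 cm, grown 14 days in greenhouse at 25° C. to 30° C. Emulsion formulation diluted in water to set rate (g/ha) and sprayed onto stems and leaves. Effect scored visually 3 weeks later on 0–5 scale (5 = ≥90% herbicidal ratio, 0 = ≤5%).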

Triticum aestivum = assay: as above; conditions: Application herbicide amount 320 g/ha; foliage application
Procedure, shortened: as §1

[2] = test system: Beta vulgaris ssp. vulgaris; assay: as above; conditions: Application herbicide amount 320 g/ha; foliage application
Procedure, shortened: as §1

[3] = test system: directly sowed Oryza sativa; assay: as above; conditions: Application herbicide amount 320 g/ha; foliage application
Procedure, shortened: as §1

Zea mays = assay: as above; conditions: Application herbicide amount 320 g/ha; foliage application
Procedure, shortened: as §1

Glycine max = assay: as above; conditions: Application herbicide amount 320 g/ha; foliage application
Procedure, shortened: as §1

Veronica persica = assay: Test Example 4: herbicidal effect by application to foliage (diluvial soil, plastic box); conditions: Application herbicide amount 320 g/ha; foliage application
Procedure, shortened: as §1

Amaranthus retroflexus = assay: as above; conditions: Application herbicide amount 320 g/ha; foliage application
Procedure, shortened: as §1

Abutilon theophrasti = assay: as above; conditions: Application herbicide amount 320 g/ha; foliage application
Procedure, shortened: as §1

Digitaria ciliaris = assay: as above; conditions: Application herbicide amount 320 g/ha; foliage application
Procedure, shortened: as §1

[4] = test system: Echinochloa crus-galli var. crus-galli; assay: as above; conditions: Application herbicide amount 320 g/ha; foliage application
Procedure, shortened: as §1

Stellaria media = assay: as above; conditions: Application herbicide amount 320 g/ha; foliage application
Procedure, shortened: as §1

Lolium multiflorum Lam. = assay: as above; conditions: Application herbicide amount 320 g/ha; foliage application
Procedure, shortened: as §1

Alopecurus myosuroides = assay: as above; conditions: Application herbicide amount 320 g/ha; foliage application
Procedure, shortened: as §1

Setaria viridis = assay: as above; conditions: Application herbicide amount 320 g/ha; foliage application
Procedure, shortened: as §1

Apera spica-venti. = assay: as above; conditions: Application herbicide amount 320 g/ha; foliage application
Procedure, shortened: as §1

Chenopodium album = assay: as above; conditions: Application herbicide amount 320 g/ha; foliage application
Procedure, shortened: as §1

Avena fatua = assay: as above; conditions: Application herbicide amount 320 g/ha; foliage application
Procedure, shortened: as §1

Galium spurium = assay: as above; conditions: Application herbicide amount 320 g/ha; foliage application
Procedure, shortened: as §1

| SMILES | a: transplanted Oryza sativa (effect on crop grade) [1] | g (Brassica campestris L.) effect on crop grade (Brassica campestris L.) | e (Triticum aestivum) effect on crop grade (Triticum aestivum) | f (Beta vulgaris ssp. vulgaris) effect on crop grade [2] | b (directly sowed Oryza sativa) effect on crop grade [3] | c (Zea mays) effect on crop grade (Zea mays) | d (Glycine max) effect on crop grade (Glycine max) | R (Veronica persica) herbicidal effect grade (Veronica persica) | N (Amaranthus retroflexus) herbicidal effect grade (Amaranthus retroflexus) | M (Abutilon theophrasti) herbicidal effect grade (Abutilon theophrasti) | F (Digitaria ciliaris) herbicidal effect grade (Digitaria ciliaris) | H (Echinochloa crus-galli var. crus-galli) herbicidal effect grade [4] | P (Stellaria media) herbicidal effect grade (Stellaria media) | K (Lolium multiflorum Lam.) herbicidal effect grade (Lolium multiflorum Lam.) | J (Alopecurus myosuroides) herbicidal effect grade (Alopecurus myosuroides) | G (Setaria viridis) herbicidal effect grade (Setaria viridis) | L (Apera spica-venti.) herbicidal effect grade (Apera spica-venti.) | O (Chenopodium album) herbicidal effect grade (Chenopodium album) | I (Avena fatua) herbicidal effect grade (Avena fatua) | Q (Galium spurium) herbicidal effect grade (Galium spurium) |
| --- | --- | --- | --- | --- | --- | --- | --- | --- | --- | --- | --- | --- | --- | --- | --- | --- | --- | --- | --- | --- |
| COc1cc(OC)cc(-c2nnc3c(C(=O)Nc4nnco4)ccc(C(F)(F)F)n23)c1 [1-148] | 4 (Herbicidal ratio of 70% or more and less than 90%) | 4 (Herbicidal ratio of 70% or more and less than 90%) | 0 (Herbicidal ratio of 5% or less (almost no effect)) | 5 (Herbicidal ratio of 90% or more (almost completely withered)) | 3 (Herbicidal ratio of 40% or more and less than 70%) | 0 (Herbicidal ratio of 5% or less (almost no effect)) | 3 (Herbicidal ratio of 40% or more and less than 70%) | 5 (Herbicidal ratio of 90% or more (almost completely withered)) | 5 (Herbicidal ratio of 90% or more (almost completely withered)) | 3 (Herbicidal ratio of 40% or more and less than 70%) | 4 (Herbicidal ratio of 70% or more and less than 90%) | 5 (Herbicidal ratio of 90% or more (almost completely withered)) | 5 (Herbicidal ratio of 90% or more (almost completely withered)) | 3 (Herbicidal ratio of 40% or more and less than 70%) | 1 (Herbicidal ratio of 5% or more and less than 20%) | 3 (Herbicidal ratio of 40% or more and less than 70%) | 2 (Herbicidal ratio of 20% or more and less than 40%) | 5 (Herbicidal ratio of 90% or more (almost completely withered)) | 1 (Herbicidal ratio of 5% or more and less than 20%) | 4 (Herbicidal ratio of 70% or more and less than 90%) |
| COc1ccc(-c2nnc3c(C(=O)Nc4nnco4)ccc(C(F)(F)F)n23)cc1 [1-149] | 3 (Herbicidal ratio of 40% or more and less than 70%) | 5 (Herbicidal ratio of 90% or more (almost completely withered)) | 0 (Herbicidal ratio of 5% or less (almost no effect)) | 5 (Herbicidal ratio of 90% or more (almost completely withered)) | 1 (Herbicidal ratio of 5% or more and less than 20%) | 0 (Herbicidal ratio of 5% or less (almost no effect)) | 3 (Herbicidal ratio of 40% or more and less than 70%) | 5 (Herbicidal ratio of 90% or more (almost completely withered)) | 3 (Herbicidal ratio of 40% or more and less than 70%) | 3 (Herbicidal ratio of 40% or more and less than 70%) | 4 (Herbicidal ratio of 70% or more and less than 90%) | 4 (Herbicidal ratio of 70% or more and less than 90%) | 5 (Herbicidal ratio of 90% or more (almost completely withered)) | 1 (Herbicidal ratio of 5% or more and less than 20%) | 1 (Herbicidal ratio of 5% or more and less than 20%) | 3 (Herbicidal ratio of 40% or more and less than 70%) | 2 (Herbicidal ratio of 20% or more and less than 40%) | 5 (Herbicidal ratio of 90% or more (almost completely withered)) | 1 (Herbicidal ratio of 5% or more and less than 20%) | 3 (Herbicidal ratio of 40% or more and less than 70%) |
| O=C(Nc1nnco1)c1ccc(C(F)(F)F)n2c(-c3ccc(Cl)nc3)nnc12 [1-150] | 4 (Herbicidal ratio of 70% or more and less than 90%) | 5 (Herbicidal ratio of 90% or more (almost completely withered)) | 3 (Herbicidal ratio of 40% or more and less than 70%) | 5 (Herbicidal ratio of 90% or more (almost completely withered)) | 3 (Herbicidal ratio of 40% or more and less than 70%) | 0 (Herbicidal ratio of 5% or less (almost no effect)) | 4 (Herbicidal ratio of 70% or more and less than 90%) | 5 (Herbicidal ratio of 90% or more (almost completely withered)) | 5 (Herbicidal ratio of 90% or more (almost completely withered)) | 3 (Herbicidal ratio of 40% or more and less than 70%) | 4 (Herbicidal ratio of 70% or more and less than 90%) | 5 (Herbicidal ratio of 90% or more (almost completely withered)) | 5 (Herbicidal ratio of 90% or more (almost completely withered)) | 3 (Herbicidal ratio of 40% or more and less than 70%) | 1 (Herbicidal ratio of 5% or more and less than 20%) | 3 (Herbicidal ratio of 40% or more and less than 70%) | 3 (Herbicidal ratio of 40% or more and less than 70%) | 5 (Herbicidal ratio of 90% or more (almost completely withered)) | 3 (Herbicidal ratio of 40% or more and less than 70%) | 4 (Herbicidal ratio of 70% or more and less than 90%) |
| COc1ccc(Cc2nnc3c(C(=O)Nc4nnco4)ccc(C(F)(F)F)n23)cc1 [1-151] | 0 (Herbicidal ratio of 5% or less (almost no effect)) | 5 (Herbicidal ratio of 90% or more (almost completely withered)) | 3 (Herbicidal ratio of 40% or more and less than 70%) | 5 (Herbicidal ratio of 90% or more (almost completely withered)) | 0 (Herbicidal ratio of 5% or less (almost no effect)) | 0 (Herbicidal ratio of 5% or less (almost no effect)) | 4 (Herbicidal ratio of 70% or more and less than 90%) | 5 (Herbicidal ratio of 90% or more (almost completely withered)) | 5 (Herbicidal ratio of 90% or more (almost completely withered)) | 3 (Herbicidal ratio of 40% or more and less than 70%) | 5 (Herbicidal ratio of 90% or more (almost completely withered)) | 5 (Herbicidal ratio of 90% or more (almost completely withered)) | 5 (Herbicidal ratio of 90% or more (almost completely withered)) | 3 (Herbicidal ratio of 40% or more and less than 70%) | 1 (Herbicidal ratio of 5% or more and less than 20%) | 3 (Herbicidal ratio of 40% or more and less than 70%) | 2 (Herbicidal ratio of 20% or more and less than 40%) | 5 (Herbicidal ratio of 90% or more (almost completely withered)) | 3 (Herbicidal ratio of 40% or more and less than 70%) | 4 (Herbicidal ratio of 70% or more and less than 90%) |
